The source of these data is patent publication US8426406B2, “Glucocorticoid receptor agonist comprising 2,2,4-trimethyl-6-phenyl-1,2-dihydroquinoline derivatives having substituted oxy group” (Santen Pharmaceutical Co., Ltd., priority 2008, dated 2013).

Assay [1] has as its system IL-6 production induced by lipopolysaccharide (LPS) in human corneal epithelial cells. The assay is described as follows: Evaluation test for GR agonist activity: inhibition of LPS-induced IL-6 production in human corneal epithelial cells (HCE-T). In kind it is cell-based. The settings on record: Corneal epithelial cell, 10 μL of 100 μM test compound solution per well, 4 hours incubation, efficacy relative to DEX. Put shortly: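 SV40-immortalized HCE-T cells were treated with test compound (100 μM solution, stock before dilution into well) plus LPS (1 μg/mL solution, likewise pre-dilution) for 4 hours in 10% FBS-DMEM/F12. IL-6 in supernatants was measured by HTRF. Inhibition was calculated relative to LPS-plus-DMSO and no-LPS controls, and efficacy was expressed as % of DEX inhibition.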

Assay [2] has as its system allergic conjunctivitis model in mice. In words: Inhibitory effect on the vascular hyper-permeability in allergic conjunctivitis model. In kind it is in vivo. The settings on record: Mus musculus, 1% (W/V) test compound suspension instilled to the right eye three times before ovalbumin instillation, dye leakage vs vehicle, mean of 5-6 eyes, read-out: The inhibition ratio of the vascular hyper-permeability (%). The protocol: In order to evaluate anti-allergic effect, inhibitory effect on the vascular hyper-permeability in allergic conjunctivitis model in mice was examined. This effect was calculated based on dye leakages of vehicle-treated group (control group) and test compound-treated group.
By adding 0.5% polysorbate 80/saline to the test compound, a 1% (W/V) test compound suspension was prepared.
1) Ovalbumin absorbed on aluminum hydroxide gel was dissolved in saline (20 μg ovalbumin/mL), and male BALE/c mice, 6 weeks old, were actively sensitized to the antigen by intraperitoneal injections of 500 μL of it.
2) On the 6th day from sensitization, sensitized mice were boosted by additional intraperitoneal injections of 500 μL ovalbumin absorbed on aluminum hydroxide gel (20 μg ovalbumin/mL).
3) On the 11th day, 12th day, 13th day, 14th day and 15th day from the first sensitization, allergic conjunctivitis were induced by installations to the right eyes of the mice of […] of 50% glycerol solution containing 15% (W/V) ovalbumin.
4) […] of test compound suspension per eye was instilled to the right eye of the above mice 15 min, 1 hr and 3 hrs before ovalbumin instillation (three times) on the 15th day from sensitization. In vehicle-treated group (control group), the mice were instilled with 0.5% polysorbate 80/saline in substitution for test compound suspension.
5) Just before ovalbumin instillation on the 15th day from sensitization, all animals received a tail intravenous injection of 0.1% Evans blue dye. The right periocular tissues of the mice, which were the leaked parts of dye, were collected 30 min after ovalbumin instillation. The dye was extracted from the tissues with the dye extraction liquid. Then the absorbance of the dye extract was measured. The dye leakage was calculated from the absorbance value, and the inhibition ratio of the vascular hyper-permeability of test compound-treated group was calculated according to calculation equation 1. The inhibition ratio of the vascular hyper-permeability of test compound-treated group(%)=(1−Ax/Ao)×100 (Calculation Equation 1) Ao: Dye leakage in vehicle-treated group (control group) Ax: Dye leakage in test compound-treated group (Test Results and Discussion)

Assay [3] deals with choroidal neovascularization (CNV) model in rats. The assay is described as follows: Evaluation test for inhibitory effect of choroidal neovascularization (laser induced CNV model in rats). In kind it is in vivo. The note with it: Brown Norway rats, 1% (w/v) suspension eye drops four times a day or 20 mg/mL subconjunctival injection (route not given), vs vehicle, mean of 7-8 eyes in 4 rats. On the procedure: The choroidal neovascularization (CNV) model in rats is known as one of the popular methods for evaluating the CNV inhibitory effect of drugs. This method is reported in Graefe's Arch. Cli. Exp. Ophthalmol., 235, 313-319 (1997). According to this method, the CNV examinations were performed to evaluate the CNV inhibitory effect of test compounds by comparing the incidence rates of CNV in vehicle group (control group) with test compound-treated groups.
For eye drop administration, a 1% (w/v) test compound suspension was prepared by adding 0.5% polysorbate 80/saline to the test compound. For subconjunctival injection, a 20 mg/mL test compound suspension was prepared by adding 0.5% hydrogenated castor oil/saline to the test compound.
1) Brown Norway male rats (7-8 weeks, 140-240 g) were anesthetized with intramuscular injection (1 mL/kg) of the mixed solution (5% ketamine HCl: 2% xylazine HCl=7:1).
2) After mydriasis using tropicamide phenylephrine hydrochloride eye drops (trade name Mydrin P), laser photocoagulation of bruch's membrane in rats was performed with krypton laser photocoagulation machine. Laser irradiation was performed at 8-9 points per eye avoiding thick retinal blood vessels in ocular fundus and focusing on the depth of retina. The conditions were 100 μm spot size, 100 mW power, 0.1 second duration.
3) After laser photocoagulation, photographs of ocular fundus were taken and the laser photocoagulation (laser irradiation) points were confirmed.
1) In case of eye drops administration, a test compound suspension was administrated four times a day from laser irradiation day (the 1st day) to the 8th day. In case of subconjunctival injection, a 50 μL test compound suspension was injected into conjunctivae just after laser irradiation.
2) In vehicle group (control group), 0.5% polysorbate 80/saline or 0.5% hydrogenated castor oil/saline was used instead of a test compound suspension. And the test was performed according to the method 1).
1) 7 days after laser irradiation, 0.1 mL of 10% fluorescein was injected into rat tail vein and fluorescein angiography was performed.
2) When the fluorescent leakage was not detected in the fluorescent angiography, the spot was judged to be a negative spot. When the fluorescent leakage was detected, the spot was judged to be a positive spot. When the fluorescent leakage was detected as a little leakage, two spots were counted as one positive spot.
3) The neovascular incidence rate was calculated according to the equation 1. According to the equation 2, the ratio of neovascular incidence rate in test compound group to vehicle group was calculated. Neovascular incidence rate(%)=(Positive spots/all spots)×100 (Equation 1) Angiogenic inhibition ratio in test compound group(%)=(1−Ax/Ao)×100 (Equation 2)
Ao: Neovascular incidence rate in vehicle group (control group)
Ax: Neovascular incidence rate in test compound group

`COc1cc(OC(=O)c2ccccc2Cl)ccc1-c1ccc2c(c1COc1cc(F)ccc1C)C(C)=CC(C)(C)N2` [Compound 1-7, 6-[4-(2-Chlorobenzoyloxy)-2-methoxyphenyl]-5-(5-fluoro-2-methylphenoxymethyl)-2,2,4-trimethyl-1,2-dihydroquinoline] showed an Emax in assay [1] of 78%. The inhibition in vivo at 10000 µg/mL in assay [2] is 28%. The molecule `COc1cc(OC(=O)c2cccnc2C)ccc1-c1ccc2c(c1COc1cc(F)ccc1C)C(C)=CC(C)(C)N2` [Compound 1-49, 5-(5-Fluoro-2-methylphenoxymethyl)-6-[2-methoxy-4-(2-methylpyridin-3-ylcarbonyloxy)phenyl]-2,2,4-trimethyl-1,2-dihydroquinoline] displayed an Emax in assay [1] of 96%. The “Angiogenic inhibition ratio (%)” value in assay [3] turned out to be 23%. Molecule `COc1ccccc1NCc1c(-c2ccc(OC(=O)c3cccnc3)cc2OC)ccc2c1C(C)=CC(C)(C)N2` [Compound 1-97, 5-(2-Methoxyphenylaminomethyl)-6-[2-methoxy-4-(pyridin-3-ylcarbonyloxy)phenyl]-2,2,4-trimethyl-1,2-dihydroquinoline] registered an Emax in assay [1] of 81%. Besides, in assay [2], the inhibition in vivo at 10000 µg/mL is 21%.

In assay [1], `COc1ccccc1NCc1c(-c2ccc(OC(=O)N3CCOCC3)cc2OC)ccc2c1C(C)=CC(C)(C)N2` [Compound 6-35, 6-[2-Methoxy-4-(morpholin-4-ylcarbonyloxy)phenyl]-5-(2-methoxyphenylaminomethyl)-2,2,4-trimethyl-1,2-dihydroquinoline] showed an Emax of 87%. Moreover, the “Angiogenic inhibition ratio (%)” value in assay [3] was found to be 26%.

As for `COc1cc(OC(=O)N2CCOCC2)ccc1-c1ccc2c(c1COc1cc(F)ccc1C)C(C)=CC(C)(C)N2` [Compound 6-31, 5-(5-Fluoro-2-methylphenoxymethyl)-6-[2-methoxy-4-(morpholin-4-ylcarbonyloxy)phenyl]-2,2,4-trimethyl-1,2-dihydroquinoline], the Emax in assay [1] is 86%. Moreover, in assay [3], the “Angiogenic inhibition ratio (%)” value turned out to be 45%.

`COc1cc(OC(=O)c2ccoc2)ccc1-c1ccc2c(c1COc1cc(F)ccc1C)C(C)=CC(C)(C)N2` [Compound 1-25, 5-(5-Fluoro-2-methylphenoxymethyl)-6-[4-(furan-3-ylcarbonyloxy)-2-methoxyphenyl]-2,2,4-trimethyl-1,2-dihydroquinoline]: the Emax in assay [1] came to 83%. Besides, the “Angiogenic inhibition ratio (%)” value in assay [3] is 50%. On the same counts, the results for `COc1ccc([N+](=O)[O-])cc1OCc1c(-c2ccc(OS(=O)(=O)C3CC3)cc2OC)ccc2c1C(C)=CC(C)(C)N2` [Compound 4-8, 6-(4-Cyclopropylsulfonyloxy-2-methoxyphenyl)-5-(2-methoxy-5-nitrophenoxymethyl)-2,2,4-trimethyl-1,2-dihydroquinoline] are 78% and 26%. On the same counts, the results for `COc1cc(OC(=O)C(C)C)ccc1-c1ccc2c(c1COc1cc(F)ccc1C)C(C)=CC(C)(C)N2` [Compound 1-14, 5-(5-Fluoro-2-methylphenoxymethyl)-6-(4-isobutyryloxy-2-methoxyphenyl)-2,2,4-trimethyl-1,2-dihydroquinoline] are 79% and 46%. Consider `CCCC(=O)Oc1ccc(-c2ccc3c(c2COc2cc(F)ccc2C)C(C)=CC(C)(C)N3)c(OC)c1` [Compound 1-9, 6-(4-Butyryloxy-2-methoxyphenyl)-5-(5-fluoro-2-methylphenoxymethyl)-2,2,4-trimethyl-1,2-dihydroquinoline], for which, in assay [1], the Emax stood at 79%. In assay [3], the “Angiogenic inhibition ratio (%)” value came out at 31%. On the same counts, the results for `COc1cc(OS(=O)(=O)C(C)C)ccc1-c1ccc2c(c1COc1cc(F)ccc1C)C(C)=CC(C)(C)N2` [Compound 4-5, 5-(5-Fluoro-2-methylphenoxymethyl)-6-(4-isopropylsulfonyloxy-2-methoxyphenyl)-2,2,4-trimethyl-1,2-dihydroquinoline] are 90% and 38%. For `COc1ccc(OC(=O)c2cccnc2)cc1-c1ccc2c(c1COc1cc(F)ccc1C)C(C)=CC(C)(C)N2` [Compound 1-19, 5-(5-Fluoro-2-methylphenoxymethyl)-6-[2-methoxy-5-(pyridin-3-ylcarbonyloxy)phenyl]-2,2,4-trimethyl-1,2-dihydroquinoline], in that order: 78% and 30%.

`COc1cc(OC(=O)c2ccncc2)ccc1-c1ccc2c(c1COc1cc(F)ccc1C)C(C)=CC(C)(C)N2` [Compound 1-33, 5-(5-Fluoro-2-methylphenoxymethyl)-6-[2-methoxy-4-(pyridin-4-ylcarbonyloxy)phenyl]-2,2,4-trimethyl-1,2-dihydroquinoline] gave a maximum response (Emax) in assay [1] of 82%. The “Angiogenic inhibition ratio (%)” value in assay [3] was found to be 29%. In turn, `COc1cc(OC(=O)N(C)C)ccc1-c1ccc2c(c1COc1cc(F)ccc1C)C(C)=CC(C)(C)N2` [Compound 6-3, 6-(4-Dimethylaminocarbonyloxy-2-methoxyphenyl)-5-(5-fluoro-2-methylphenoxymethyl)-2,2,4-trimethyl-1,2-dihydroquinoline] had an Emax in assay [1] of 83%. For the same molecule, the “Angiogenic inhibition ratio (%)” value in assay [3] is recorded as 38%. Molecule `COc1cc(OC(=O)c2ccc(F)cc2)ccc1-c1ccc2c(c1COC(=O)c1ccc(C)s1)C(C)=CC(C)(C)N2` [Compound 1-169, 6-[4-(4-Fluorobenzoyloxy)-2-methoxyphenyl]-5-(5-methylthiophen-2-ylcarbonyloxymethyl)-2,2,4-trimethyl-1,2-dihydroquinoline] had an Emax in assay [1] of 78%. As to `COc1ccccc1NCc1c(-c2ccc(OC(=O)c3ccco3)cc2OC)ccc2c1C(C)=CC(C)(C)N2` [Compound 1-3, 6-[4-(Furan-2-ylcarbonyloxy)-2-methoxyphenyl]-5-(2-methoxyphenylaminomethyl)-2,2,4-trimethyl-1,2-dihydroquinoline], the Emax in assay [1] was 76%. Molecule `COc1cc(OC(=O)c2ccnc(Cl)c2)ccc1-c1ccc2c(c1COc1cc(F)ccc1C)C(C)=CC(C)(C)N2` [Compound 1-68, 6-[4-(2-Chloropyridin-4-ylcarbonyloxy)-2-methoxyphenyl]-5-(5-fluoro-2-methylphenoxymethyl)-2,2,4-trimethyl-1,2-dihydroquinoline] yielded an Emax in assay [1] of 72%. Consider `COc1ccc(OC(=O)c2ccco2)cc1-c1ccc2c(c1COc1cc(F)ccc1C)C(C)=CC(C)(C)N2` [Compound 1-17, 5-(5-Fluoro-2-methylphenoxymethyl)-6-[5-(furan-2-ylcarbonyloxy)-2-methoxyphenyl]-2,2,4-trimethyl-1,2-dihydroquinoline], for which the Emax in assay [1] was 84%. Besides, the “Angiogenic inhibition ratio (%)” value in assay [3] was found to be 35%.

For orientation: Emax means the size of the effect at its maximum, as opposed to the concentration needed.
